From patent US20260217983A1, “SULFONIUM SALT PHOTOINITIATORS AND METHODS OF LED CURING A COMPOSITION WITH SAID SULFONIUM SALT PHOTOINITIATORS” (ARKEMA FRANCE, priority 2022, published 2026)

Assays:
[1] = Thermal stability by DSC in TMPTA resin; type: physicochemical; details: DSC at 10° C./min, loading 1 wt %
Procedure: (§1) Formulations comprising the photoinitiators and neat UViCure S105E resin and/or TMPTA resin were prepared as described at example 2.

[2] = Thermal stability by DSC in TMPTA/UViCure S105E (1:1) hybrid resin; type: physicochemical; details: DSC at 10° C./min, loading 1 wt %
Procedure: as §1

[3] = Real time FT-IR curing performance at 405 nm in UViCure S105/TMPTA (1:1); details: LED @405 nm (110 mW/cm^2), 20 μm thickness, laminated
Procedure: (§2) The curing performance of individual products prepared above was assessed using real time FT-IR measurement. The photoinitiators were dissolved either in neat trimethylolpropane triacrylate (TMPTA; available as SR351 from Sartomer) or in a 1:1 (w/w) mixture of TMPTA and UViCure S105 as indicated, applied onto the FT-IR measurement plate, laminated to prevent oxygen inhibition, and irradiated with the indicated LED light source. For the epoxy component, the polymerization rate and final reactive group conversion were determined by monitoring the change of the relevant infrared band near 900 cm^−1 corresponding to an epoxide ring. For the acrylate component, the C═C stretch band near 1625 cm^−1 was used.

[4] = Thermal stability by DSC in UViCure S105E resin; type: physicochemical; details: DSC at 10° C./min, loading 1 wt % (Omnicat BL550 4 wt %; Speedcure 938/CPTX 1/0.5 wt %)
[5] = Solubility in propylene carbonate at ambient temperature; type: physicochemical; details: 20-25° C.
Procedure: Solubility of selected sulfonium salts in propylene carbonate at ambient temperature (20-25° C.) was determined.

[6] = Real time FT-IR curing performance at 405 nm in neat TMPTA; details: 20 μm thickness, laminated; for Acrylate Polymerization rate Rp/[M0]*100: LED @405 nm (110 W/cm^2); for Acrylate Final conversion: LED @405 nm (110 mW/cm^2)
Procedure: as §2

[7] = Belt curing performance (thumb-twist depth cure) in UViCure S105E resin; details: 24 μm film, under air, PI 2 wt %
Procedure: (§3) The photoinitiators were dissolved either in neat UViCure S105E resin or a hybrid acrylate/epoxy resin (prepared by mixing 60 wt parts UViCure S105E, 15 wt parts UViCure S130 and 25 wt parts SR492; all product are available from Sartomer). Formulations were prepared by combining all materials in the given proportions and then stirring at 30-40° C. until the samples were fully homogeneous; the formulations were then allowed to cool to room temperature. For all experiments, the formulations were cured on Leneta Form 3N-31 gloss finish paper at 6 μm and 24 μm film thickness using a belt-cure instrument; the films were prepared using a K-bar. All films were then cured under an LED lamp at a given belt speed. ‘Depth cure’ for each formulation was assessed using the ‘thumb-twist’ test (where no visible mark is made when a thumb is pressed down firmly onto the coating with a twisting motion), and from the belt speed; the calculated cure speed (in m/min) is given.

[8] = Transmittance at 0.01% w/v in propylene carbonate; type: physicochemical
Procedure: The samples were prepared at 0.01% w/v in propylene carbonate.

[9] = Belt curing performance (thumb-twist depth cure) in hybrid acrylate/epoxy resin; details: for Cure speed in hybrid acrylate/epoxy resin: 24 μm film, under air, PI 2 wt %
Procedure: as §3

[10] = Colour index 'b' of formulations before and after polymerization; type: physicochemical; details: UViCure S105E, thin samples (20 μm), under air, 300 s irradiation
Procedure: The low yellowing characteristics can be measured by the Colour index ‘b’ value on cured films.
Formulations comprising the photoinitiators and neat UViCure S105E resin were prepared as described at example 2.

[11] = UV Vis spectra measurement; type: physicochemical; details: order 5>1>2 (comp.) ~4 (comp.); 10 ppm in acetonitrile
Source text: UV-Vis spectrum of each sample was taken with a Shimadzu UV1800 spectrophotometer using a 1.0 cm path of cuvette quartz cell in accordance with ASTM E169-04, and scanning the spectrum over the wavelength range of 450 to 200 nm.

[12] = Molar extinction coefficient in acetonitrile; type: physicochemical
Procedure: The curing performance of individual products prepared above was assessed using real time FT-IR measurement. The photoinitiators were dissolved in cycloaliphatic epoxy resin UViCure S105 (available from Sartomer) at the indicated wt % loading, applied onto the FT-IR measurement plate and irradiated with the indicated LED light source. The polymerization rate and final reactive group conversion were determined by monitoring the change of the relevant infrared band near 900 cm^−1 corresponding to an epoxide ring during irradiation. The molar extinction coefficients for the photoinitiator products (ε, expressed in M^−1 cm^−1) were determined in acetonitrile at 10^-3 M or 10^-5 M concentration.

[13] = LED 365 nm, 100% intensity (=70.1 mJ/cm^2), belt speed 40 m/min
[14] = LED 395 nm, 40 m/min, 100% intensity (=164.5 mJ/cm^2)
[15] = LED 395 nm, 80 m/min, 50% intensity (=36.9 mJ/cm^2)

SMILES	Acrylate Final conversion [3] [%]	Acrylate Polymerization rate Rp/[M0]*100 [3] [s⁻¹]	Epoxy Final conversion [3] [%]	Epoxy Polymerization rate Rp/[M0]*100 [3] [s⁻¹]	Solubility in propylene carbonate [5] [wt %]	Acrylate Polymerization rate Rp/[M0]*100 [6] [s⁻¹]	Acrylate Final conversion [6] [%]	Cure speed in UViCure S105E resin [7, 13] [m/min]	Cure speed in UViCure S105E resin [7, 14] [m/min]	% Transmittance at 355 nm [8] [%]	% Transmittance at 420 nm [8] [%]	Cure speed in hybrid acrylate/epoxy resin [9, 13] [m/min]	Cure speed in hybrid acrylate/epoxy resin [9, 15] [m/min]	Colour index ‘b’ value After Polymerization ([10]; LED @365 nm (120 mW/cm^2))	Colour index ‘b’ value Before Polymerization ([10]; LED @365 nm (120 mW/cm^2))	Colour index ‘b’ value After Polymerization ([10]; LED @385 nm (160 mW/cm^2))	Colour index ‘b’ value Before Polymerization ([10]; LED @385 nm (160 mW/cm^2))	UV absorption at 405 nm [11]	ε at 365 nm [12] [M⁻¹ cm⁻¹]	ε at 385 nm [12] [M⁻¹ cm⁻¹]	also measured
CC(C)c1ccc2sc3ccc(-[s+]4c5ccccc5c(=O)c5cc(C(C)C)ccc54)cc3c(=O)c2c1 (stereo not drawn) [Photoinitiator 1, 9-oxo-10-[9-oxo-7-(propan-2-yl)-9H-thioxanthen-2-yl]-2-(propan-2-yl)-9H-thioxanthen-10-ium hexafluorophosphate]	83	10.57	47	8.12	>50	3.43	38	12.2	20.0	8.0	90.3	20.0	40.0	8.81	6.38	8.71	6.13	much higher than Omnicat 550 and SC 992S	23380	23514	onset temperature of thermal polymerisation [1]: 150 °C; onset temperature of thermal polymerisation [2]: 133 °C; onset temperature of thermal polymerisation [4]: ~220° ° C.
Cc1ccc([S+](c2ccc(C(=O)c3ccccc3)cc2)c2ccc3sc4ccc(C(C)C)cc4c(=O)c3c2)cc1 (stereo not drawn) [Photoinitiator 2, (4-benzoylphenyl)(4-methylphenyl)[9-oxo-7-(propan-2-yl)-9H-thioxanthen-2-yl]sulfonium Hexafluorophosphate]	81	11.56	45	6.12	>48	4.58	53	4.6	10.0	19.7	94.3	11.1	16.4	6.31	6.48	6.26	6.49	much higher than Omnicat 550 and SC 992S	14201	14921	onset temperature of thermal polymerisation [1]: 170 °C; onset temperature of thermal polymerisation [2]: 117 °C; onset temperature of thermal polymerisation [4]: ~240° ° C.
CCc1cc(CC)c2sc3ccc([S+](c4ccc(C)cc4)c4ccc(C(=O)c5ccccc5)cc4)cc3c(=O)c2c1 (stereo not drawn) [Photoinitiator 4, (4-benzoylphenyl)(5,7-diethyl-9-oxo-9H-thioxanthen-2-yl)(4-methylphenyl)sulfonium Hexafluorophosphate]	83	12.20	45	6.29	>47	5.70	64	3.7	5.2	6.8	83.3	17.8	15.1	6.05	6.33	6.09	6.28	much higher than Omnicat 550 and SC 992S	13154	13649	
CCCOc1ccc(Cl)c2c(=O)c3cc(-[s+]4c5ccccc5c(=O)c5c(Cl)ccc(OCCC)c54)ccc3sc12 (stereo not drawn) [Photoinitiator 5, 1-chloro-10-(8-chloro-9-oxo-5-propoxy-9H-thioxanthen-2-yl)-9-oxo-4-propoxy-9H-thioxanthen-10-ium Hexafluorophosphate]	70	6.03	44	3.87	42	2.01	51	13.3	13.3	0.8	64.8	40.0	80.0	4.92	5.02	4.91	5.35	much higher than Omnicat 550 and SC 992S	37326	23429	onset temperature of thermal polymerisation [1]: 165 °C; onset temperature of thermal polymerisation [2]: 120 °C; onset temperature of thermal polymerisation [4]: ~214° ° C.; belt cure speed compared with photoinitiator 1 ([9]; at 80 m/min in hybrid acrylate/epoxy resin at both 365 nm and 395 nm): superior cure speed
